Blank lines part the entries; values can stand above or below the sequence they belong to.
How the values were obtained:
Test in all cases: pTyr-Var library bacterial peptide display kinase screen (enrichment scores)
EPHB2 kinase domain = assay type: biochemical, human; details: sheet EPHB2
c-Src kinase domain = c-Src kinase domain (Homo sapiens, UniProt P12931); assay type: biochemical; details: sheet "Src";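 also: log2 fold change in enrichment of variant over reference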
Fer kinase domain = assay type: biochemical, mouse; details: sheet "Fer"
c-Abl kinase domain = target: T1, c-Abl kinase domain (Mus musculus, UniProt P00520); assay type: biochemical;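 also: log2 fold change in enrichment of variant over reference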
T1 sequence (P00520 242-493 limits assumed): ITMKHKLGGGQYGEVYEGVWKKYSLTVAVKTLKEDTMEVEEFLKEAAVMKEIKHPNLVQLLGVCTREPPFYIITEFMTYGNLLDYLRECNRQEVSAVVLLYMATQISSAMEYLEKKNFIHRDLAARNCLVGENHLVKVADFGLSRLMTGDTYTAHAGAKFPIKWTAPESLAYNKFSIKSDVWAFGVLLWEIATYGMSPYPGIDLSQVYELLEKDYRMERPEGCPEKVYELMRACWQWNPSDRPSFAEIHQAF

EPHB1 kinase domain = assay type: biochemical, human; details: sheet "EPHB1"; variant seq vs reference seq; bacterial peptide display enrichment
[1] = variant peptide versus its reference peptide in the pTyr-Var library screen
[2] = variant peptide relative to its reference peptide, pTyr-Var library screen enrichment
[3] = effect of the variant peptide relative to its reference peptide in the pTyr-Var library screen
[4] = value of the variant peptide against its reference peptide in the pTyr-Var library screen with Fer
[5] = effect of variant peptide relative to its reference peptide in the pTyr-Var library screen (enrichment scores)
[6] = fig5-data2, sheet "Abl", Screen for the variant/reference peptide pair, pTyr-Var library
[7] = sheet "Abl", effect of variant peptide relative to its reference peptide in pTyr-Var library screen (enrichment)

Sequence: PKSLFYLLLKP [TRPC6_Y775_L780P]
- Screen (EPHB2 kinase domain; effect of the variant relative to its reference peptide in the pTyr-Var library screen): -1.737
- Screen (c-Src kinase domain; [1]): -1.15
- Screen (Fer kinase domain; [2]): -0.7977

Sequence: PLDGEYSTLQI [TP53_Y327_F328S]
- Screen (c-Src kinase domain; [1]): -0.3767
- Screen (Fer kinase domain; [2]): 1.6

Sequence: SDMGQYQCLVF [AXL_Y115_T112M]
- Screen (c-Src kinase domain; [3]): 0.2602
- Screen (Fer kinase domain; [4]): 0.2934

Sequence: QMVDMYASSFM [AVPR2_Y124_G122D_YF]
- Screen (c-Src kinase domain; [3]): 0.5236

Sequence: PEPHIYAVADV [MYO9A_Y216_L211P]
- Screen (EPHB2 kinase domain; [5]): 0.8276
- Screen (c-Src kinase domain; [1]): 0.7992
- Screen (Fer kinase domain; [4]): 0.8588

Sequence: HRGHLYLAIEF [TEK_Y899_Y897H_YF]
- Screen (variant relative to reference peptide, measured in the pTyr-Var library screen) (EPHB1 kinase domain): 0.9917
- Screen (c-Src kinase domain; [1]): 2.155

Sequence: PLDEEYFTLQI [TP53_Y327_G325E]
- Screen (c-Abl kinase domain; [7]): -1.267
- Screen (c-Src kinase domain; [1]): -0.5709

Sequence: FSTPPYLLEAA [BRIP1_Y921_S919P_YF]
- Screen (c-Src kinase domain; [3]): -1.274

Sequence: PGDGEYFTLQI [TP53_Y327_L323G]
- Screen (c-Src kinase domain; [1]): 0.07795

Sequence: LDFPEYNGVDR [CASQ1_Y43_D44N]
- Screen (c-Src kinase domain; [3]): 0.514

Sequence: REGDKYVSHGA [ASS1_Y113_A111D]
- Screen (c-Abl kinase domain; [6]): 0.7285

Sequence: HFPDVYAWEQL [ALX3_Y181_R183W_YF]
- Screen (c-Src kinase domain; [3]): 2.591
- Screen (Fer kinase domain; [4]): 4.265

Sequence: LNPLIYTLRNA [OR4C46_Y285_K288R]
- Screen (c-Src kinase domain; [1]): 1.167

Sequence: QFKGKYLAKHN [CASK_Y712_D710G_YF]
- Screen (c-Abl kinase domain; [6]): 0.5412

Sequence: DGQFVYKLTDF [TBK1_Y153_S151F]
- Screen (c-Src kinase domain; [1]): -0.3973

Sequence: VNFDFYTVNLG [GFPT1_Y367_D366Y_YF]
- Screen (c-Src kinase domain; [3]): 0.9419

Sequence: ACEVLYNIVFM [NCF2_Y125_A128V]
- Screen (c-Src kinase domain; [1]): 0.004351
- Screen (Fer kinase domain; [4]): 0.5953

Sequence: GGSDCYGSLRP [MYLK_Y846_R845C]
- Screen (c-Src kinase domain; [1]): 2.609

Sequence: PSDLLYIPDIQ [ITGA2B_Y845_L847P]
- Screen (c-Src kinase domain; [3]): -2.46

Sequence: SVMAEYGLFAA [VSX2_Y219_G223A_YF]
- Screen (c-Src kinase domain; [1]): -0.3175

Sequence: STTSDYQWDFS [MTDH_Y364_V368F]
- Screen (c-Abl kinase domain; [6]): -0.6152

Sequence: FGCGMYSHLQG [LGR4_Y848_D844G_YF]
- Screen (c-Src kinase domain; [3]): -0.3661
- Screen (Fer kinase domain; [4]): -1.105

Sequence: PLQKIYNFNVL [SLC4A1_Y553_T552I_YF]
- Screen (c-Src kinase domain; [1]): 2.735

Sequence: SVETPYVSVTF [NDRG2_Y47_G48V]
- Screen (c-Src kinase domain; [1]): -1.163
- Screen (Fer kinase domain; [4]): -1.711

Sequence: DFFDLYGGKKF [PTPN11_Y66_E69K_YF]
- Screen (c-Src kinase domain; [1]): 0.3147

Sequence: FLENFYDLEKD [MMP3_Y42_K45E_YF]
- Screen (c-Src kinase domain; [3]): 0.2474

Sequence: CEAIEYLESKQ [BTK_Y511_M509I]
- Screen (c-Abl kinase domain; [6]): 1.454

Sequence: VEEDTYTMPST [PTK2_Y407_D402V]
- Screen (c-Src kinase domain; [1]): 0.7074

Next, values leading:

- Screen (c-Abl kinase domain; [6]): 2.325
Sequence: DRQASYLDKVR [KRT17_Y98_L95Q]

- Screen (c-Abl kinase domain; [6]): -0.3155
Sequence: AALLNYKAGRD [GRIN2A_Y737_V734L]

- Screen (EPHB2 kinase domain; [5]): 0.6291
Sequence: LGKLTYPVGFW [NTHL1_Y177_I176T]

- Screen (variant relative to reference peptide, measured in the pTyr-Var library screen) (EPHB1 kinase domain): -3.574
Sequence: KKFPDYIQSAM [SGMS2_Y59_I62S_YF]

- Screen (Fer kinase domain; [4]): 1.219
Sequence: GEEIKYMLWLL [OTC_Y55_S60L]

- Screen (c-Abl kinase domain; [6]): -0.5504
Sequence: TLLAFYMGNFS [GLB1_Y552_P549L]

- Screen (c-Abl kinase domain; [7]): 4.174
Sequence: WAMPAYNRSKL [WWOX_Y293_L291P]

- Screen (Fer kinase domain; [4]): -1.007
Sequence: KNKELYSDPFD [PDE10A_Y300_L303P]

- Screen (c-Abl kinase domain; [6]): -0.9436
Sequence: PVQAAYQKVEA [HBB_Y131_V135E]

- Screen (c-Abl kinase domain; [6]): 1.339
Sequence: PFQGAYLKINK [MYO1B_Y967_E969K]

- Screen (c-Abl kinase domain; [7]): 0.751
Sequence: FSGQVYRQRRK [TH_Y230_D227G]

- Screen (c-Abl kinase domain; [6]): -0.3809
Sequence: FKGIVYSVSSD [DCX_Y70_A71S]

- Screen (EPHB2 kinase domain; [5]): 1.263
- Screen (Fer kinase domain; [2]): -0.9951
Sequence: VIVRMYDFHVL [RPF2_Y109_G106V_YF]

- Screen (Fer kinase domain; [4]): 0.4548
Sequence: GQDLLYEDEDL [PACS1_Y303_F302L]

- Screen (c-Abl kinase domain; [7]): -3.408
Sequence: TDGIAYEFRVT [TTN_Y22256_I22261T]

- Screen (c-Abl kinase domain; [6]): -0.2235
Sequence: NCLRVYVAGRF [CRB1_Y711_E710V]

- Screen (EPHB2 kinase domain; [5]): 0.4332
- Screen (Fer kinase domain; [4]): 0.5368
Sequence: EGTATYAAAIL [JUP_Y644_V648I]

- Screen (EPHB2 kinase domain; [5]): 1.141
Sequence: HNQDDYSFPSR [LDLR_Y845_G844D_YF]

- Screen (c-Abl kinase domain; [6]): -1.342
Sequence: SRNSKYNAEST [PSEN1_Y315_K311R]

- Screen (c-Abl kinase domain; [6]): -0.2946
Sequence: DRLTVYIDRVR [LMNA_Y45_A43T]

- Screen (c-Abl kinase domain; [6]): 1.283
Sequence: VRFMAYTDETC [F8_Y450_F455C]

- Screen (Fer kinase domain; [4]): -0.07246
Sequence: CKSIHYDLVFL [COL22A1_Y37_V35I]

- Screen (c-Abl kinase domain; [7]): 2.296
- Screen (Fer kinase domain; [2]): 0.543
Sequence: IVRSLYEDVED [VHL_Y185_L188V]
